Data reported in US20260226073A1 (AURIGENE ONCOLOGY LIMITED, priority 2023, published 2026).
pEC50, pIC50: −log10 of the molar value.

Assays:
[1] = system: human PBMCs stimulated with anti-CD3/CD28 Dynabeads; assay: Human PBMC cytokine release assay (IL-2 by ELISA); assay type: cell-based; conditions: Dynabeads CD3/CD28 48 hours, IL-2 ELISA, fold change over baseline, read-out: EC50 (human PBMC cytokine release, group)
Method: Peripheral blood mononuclear cells (PBMC) were isolated from healthy human donor using Histopaque (Sigma). The Cbl-inhibitor was added to 1×10^5 cells per well and the plate was incubated for 30 minutes at 37° C. in 5% CO2 at different concentrations with a final DMSO concentration of <0.5%. Following incubation with the Cbl-b inhibitor, human PBMCs were stimulated with Dynabeads™ Human T-Activator CD3/CD28 (Thermo Fisher Scientific) for 48 hours. Cell free supernatant were collected after end of incubation and were analyzed for cytokine secretion, including IL-2 by ELISA (R&D Systems). Readouts were reported as fold change over baseline. Here, baseline was the measurement obtained from human PBMCs stimulated with Dynabeads™ Human T-Activator CD3/CD28, where the cells were not incubated with a Cbl-b inhibitor.

[2] = system: NFAT signaling pathway in Jurkat NFAT reporter cells; assay: Jurkat NFAT reporter assay; assay type: cell-based; conditions: Homo sapiens, 30 min with compound, then soluble anti-human CD3/CD28 antibody for 6 hours, luciferase readout, read-out: EC50 (Group)
How it was run: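 Jurkat cells bearing an NFAT-RE-driven luciferase reporter (1×10^5 per well) preincubated with Cbl-b inhibitor for 30 min, then stimulated 6 h with soluble anti-CD3/CD28. Luminescence read with Bio-Glo; values are fold change over anti-CD3/CD28-stimulated cells without inhibitor.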

[3] = molecular target: T1, human recombinant CBL-b (human Biotin CBL-b recombinant protein a.a. 39-426) (Homo sapiens, UniProt Q13191); assay: Biochemical assay for CBL-b inhibition (ligand displacement TR-FRET); assay type: binding; conditions: 50 nM CBL-b, 0.3 μM Bodipy FL-Probe, read-out: IC50 (CBL-b inhibition, group)
T1 construct: human Biotin CBL-b recombinant protein a.a; 39-426; Biotin (biotinylated); made in house
T1 sequence (Q13191 39-426): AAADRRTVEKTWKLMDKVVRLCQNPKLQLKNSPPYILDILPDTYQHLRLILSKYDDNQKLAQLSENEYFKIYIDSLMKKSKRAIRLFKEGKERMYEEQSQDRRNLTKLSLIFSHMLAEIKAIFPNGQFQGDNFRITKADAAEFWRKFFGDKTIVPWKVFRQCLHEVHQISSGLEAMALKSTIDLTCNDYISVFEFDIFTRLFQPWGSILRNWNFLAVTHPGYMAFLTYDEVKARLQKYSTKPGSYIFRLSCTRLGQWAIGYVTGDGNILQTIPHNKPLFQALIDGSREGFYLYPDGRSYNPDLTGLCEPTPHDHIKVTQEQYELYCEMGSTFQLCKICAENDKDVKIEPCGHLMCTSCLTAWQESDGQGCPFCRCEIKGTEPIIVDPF
How it was run: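 Biotinylated CBL-b (a.a. 39-426, 50 nM final) pre-incubated with compound 60 min at RT in HEPES/NaCl/Triton/BSA/TCEP buffer, then Bodipy FL probe (0.3 μM final) 60 min, then terbium-streptavidin 60 min. TR-FRET read at 665/615 nm; IC50 and % max inhibition from sigmoidal fits.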

Row | pEC50 [2] | pIC50 [3] | Compound | pEC50 [1]
1 | > 6.52 | 6.52 to 7.10 | C[C@H]1CCCN(Cc2cc(N3Cc4ccc(C5(Cc6nncn6C)COC5)cc4C3=O)cc(C(F)(F)F)c2)C1 [Compound 1, (S)-6-(3-((4-Methyl-4H-1,2,4-triazol-3-yl)methyl)oxetan-3-yl)-2-(3-((3-methylpiperidin-1-yl)methyl)-5-(trifluoromethyl)phenyl)isoindolin-1-one] | > 5.30
2 | > 6.52 | > 7.10 | C[C@H]1CCCN(Cc2cc(Cl)cc(N3Cc4ccc(C5(Cc6nncn6C)COC5)cc4C3=O)c2)C1 [Compound 6, (S)-2-(3-Chloro-5-((3-methylpiperidin-1-yl)methyl)phenyl)-6-(3-((4-methyl-4H-1,2,4-triazol-3-yl)methyl)oxetan-3-yl)isoindolin-1-one] | > 5.30
3 | 6.00 to 6.52 | 6.52 to 7.10 | Cn1cnnc1CC1(c2ccc3c(c2)C(=O)N(c2cc(CN4CC5CCCC5C4)cc(C(F)(F)F)n2)C3)COC1 (stereo not drawn) [Compound 35, 2-(4-((Hexahydrocyclopenta[c]pyrrol-2(1H)-yl)methyl)-6-(trifluoromethyl)pyri-din-2-yl)-6-(3-((4-methyl-4H-1,2,4-triazol-3-yl)methyl)oxetan-3-yl)isoindolin-1-one] | > 5.30
4 | > 6.52 | > 7.10 | C[C@H]1CCCN(Cc2cc(N3Cc4ccc(C5(Cc6nncn6C)COC5)cc4C3=O)nc(C(F)(F)F)c2)C1 [Compound 2] | > 5.30
5 | > 6.52 | > 7.10 | C[C@@H]1C[C@H](C)CN(Cc2cc(Cl)nc(N3Cc4ccc(C5(Cc6nncn6C)COC5)cc4C3=O)c2)C1 [Compound 52, 2-(6-Chloro-4-(((3S,5R)-3,5-dimethylpiperidin-1-yl)methyl)pyridin-2-yl)-6-(3-((4-methyl-4H-1,2,4-triazol-3-yl)methyl)oxetan-3-yl)isoindolin-1-one] | > 5.30
6 | > 6.52 | > 7.10 | Cc1cc(CN2CCC[C@H](C)C2)cc(N2Cc3ccc(C4(Cc5nncn5C)COC4)cc3C2=O)c1 [Compound 4, (S)-6-(3-((4-Methyl-4H-1,2,4-triazol-3-yl)methyl)oxetan-3-yl)-2-(3-methyl-5-((3-methylpiperidin-1-yl)methyl)phenyl)isoindolin-1-one] | > 5.30
7 | > 6.52 | > 7.10 | Cn1cnnc1CC1(c2ccc3c(c2)C(=O)N(c2cc(CNCC4CC4)cc(C(F)(F)F)n2)C3)COC1 [Compound 80, 2-(4-(((Cyclopropylmethyl)amino)methyl)-6-(trifluoromethyl)pyridin-2-yl)-6-(3-((4-methyl-4H-1,2,4-triazol-3-yl)methyl)oxetan-3-yl)isoindolin-1-one] | > 5.30
8 | > 6.52 | > 7.10 | C[C@H]1CCCN(Cc2cc(Cl)nc(N3Cc4ccc(C5(Cc6nncn6C)COC5)cc4C3=O)c2)C1 [Compound 40, (S)-2-(6-Chloro-4-((3-methylpiperidin-1-yl)methyl)pyridin-2-yl)-6-(3-((4-methyl-4H-1,2,4-triazol-3-yl)methyl)oxetan-3-yl)isoindolin-1-one] | > 5.30
9 | 6.00 to 6.52 | 6.52 to 7.10 | CCc1cc(CN2CCC[C@H](C)C2)cc(N2Cc3ccc(C4(Cc5nncn5C)COC4)cc3C2=O)c1 [Compound 11, (S)-2-(3-Ethyl-5-((3-methylpiperidin-1-yl)methyl)phenyl)-6-(3-((4-methyl-4H-1,2,4-triazol-3-yl)methyl)oxetan-3-yl)isoindolin-1-one] | > 5.30
10 | 6.00 to 6.52 | > 7.10 | Cc1nc(CN2CCC[C@H](C)C2)cc(N2Cc3ccc(C4(Cc5nncn5C)COC4)cc3C2=O)n1 [Compound 53, (S)-6-(3-((4-Methyl-4H-1,2,4-triazol-3-yl)methyl)oxetan-3-yl)-2-(2-methyl-6-((3-methylpiperidin-1-yl)methyl)pyrimidin-4-yl)isoindolin-1-one] | > 5.30
11 | > 6.52 | > 7.10 | Cc1cc(CN2C[C@H](C)C[C@H](C)C2)cc(N2Cc3ccc(C4(Cc5nncn5C)COC4)cc3C2=O)n1 [Compound 78, 2-(4-(((3S,5R)-3,5-Dimethylpiperidin-1-yl)methyl)-6-methylpyridin-2-yl)-6-(3-((4-methyl-4H-1,2,4-triazol-3-yl)methyl)oxetan-3-yl)isoindolin-1-one] | > 5.30
12 | 6.00 to 6.52 | 6.52 to 7.10 | Cc1cc(CN2C[C@@H](C)C[C@H](C)C2)cc(N2Cc3ccc(C4(Cc5nncn5C)COC4)cc3C2=O)c1 [Compound 59, 2-(3-(((3S,5S)-3,5-Dimethylpiperidin-1-yl)methyl)-5-methylphenyl)-6-(3-((4-methyl-4H-1,2,4-triazol-3-yl)methyl)oxetan-3-yl)isoindolin-1-one] | > 5.30
13 | 6.00 to 6.52 | > 7.10 | Cn1cnnc1CC1(c2ccc3c(c2)C(=O)N(c2cc(CNCCC(F)(F)F)cc(C(F)(F)F)n2)C3)COC1 [Compound 25, 6-(3-((4-Methyl-4H-1,2,4-triazol-3-yl)methyl)oxetan-3-yl)-2-(6-(trifluoro-methyl)-4-(((3,3,3-trifluoropropyl)amino)methyl)pyridin-2-yl)isoindolin-1-one] | > 5.30
14 | > 6.52 | > 7.10 | C[C@@H]1C[C@H](C)CN(Cc2cc(N3Cc4ccc(C5(Cc6nncn6C)COC5)cc4C3=O)nc(C(F)(F)F)c2)C1 [Compound 39, 2-(4-(((3S,5R)-3,5-Dimethylpiperidin-1-yl)methyl)-6-(trifluoromethyl)pyridin-2-yl)-6-(3-((4-methyl-4H-1,2,4-triazol-3-yl)methyl)oxetan-3-yl)isoindolin-1-one] | > 5.30
15 | 5.00 to 6.00 | > 7.10 | Cn1cnnc1CC1(c2ccc3c(c2)C(=O)N(c2cc(CNCCC(F)(F)F)cc(Cl)n2)C3)CC(C#N)C1 (stereo not drawn) [Compound 158, 3-(2-(6-Chloro-4-(((3,3,3-trifluoropropyl)amino)methyl)pyridin-2-yl)-3-oxoisoindolin-5-yl)-3-((4-methyl-4H-1,2,4-triazol-3-yl)methyl)cyclobutane-1-carbonitrile] | 
16 | > 6.52 | > 7.10 | Cn1cnnc1-c1cc(Cl)ccc1-c1ccc2c(c1)C(=O)N(c1cc(CNCC3CC3)cc(Cl)n1)C2 [Compound 102, 6-(4-Chloro-2-(4-methyl-4H-1,2,4-triazol-3-yl)phenyl)-2-(6-chloro-4-(((cyclopropylmethyl)amino)methyl)pyridin-2-yl)isoindolin-1-one] | 
17 | > 6.52 | > 7.10 | C[C@H](N[C@@H](C)C1CC1)c1cc(Cl)nc(N2Cc3ccc(C4(Cc5nncn5C)COC4)cc3C2=O)c1 (single isomer, unassigned) [Compound 246] | 
18 | 5.00 to 6.00 | 6.52 to 7.10 | Cn1cnnc1CC1(c2ccc3c(c2)C(=O)N(c2cc(CN4CCCC(CO)C4)cc(C(F)(F)F)n2)C3)COC1 (stereo not drawn) [Compound 37, 2-(4-((3-(Hydroxymethyl)piperidin-1-yl)methyl)-6-(trifluoromethyl)pyridin-2-yl)-6-(3-((4-methyl-4H-1,2,4-triazol-3-yl)methyl)oxetan-3-yl)isoindolin-1-one] | 
19 | > 6.52 | > 7.10 | C[C@H](NCC1CC1)c1cc(Cl)nc(N2Cc3ccc(C4(Cc5nncn5C)COC4)cc3C2=O)c1 (single isomer, unassigned) [Compound 167] | 
20 | 5.00 to 6.00 | > 7.10 | Cc1cc(CNCC2CC2)cc(N2Cc3ccc(-c4ccc(F)cc4-c4nccn4C)cc3C2=O)n1 [Compound 304] | 
21 | > 6.52 | > 7.10 | Cn1cnnc1C[C@]1(c2ccc3c(c2)C(=O)N(c2cc(CNCC4CC4)cc(Cl)n2)C3)C[C@H](C#N)C1 (single isomer, unassigned) [Compound 233, (1r,3r)-3-(2-(6-Chloro-4-(((cyclopropylmethyl)amino)methyl)pyridin-2-yl)-3-oxoisoindolin-5-yl)-3-((4-methyl-4H-1,2,4-triazol-3-yl)methyl)cyclobutane-1-carbo-nitrile] | 
22 | > 6.52 | > 7.10 | CC(NCC1CC(F)(F)C1)c1cc(Cl)nc(N2Cc3ccc(-c4ccc(Cl)cc4-c4nncn4C)cc3C2=O)c1 (stereo not drawn) [Compound 121, 6-(4-Chloro-2-(4-methyl-4H-1,2,4-triazol-3-yl)phenyl)-2-(6-chloro-4-(1-(((3,3-difluorocyclobutyl)methyl)amino)ethyl)pyridin-2-yl)isoindolin-1-one] | 
23 | > 6.52 | > 7.10 | C[C@H]1CCCN(Cc2cc(Cl)nc(N3Cc4ccc([C@H](C)Cc5nncn5C)cc4C3=O)c2)C1 (single isomer, unassigned) [Compound 90] | 
